{"source": "paper PMC4745983", "about": "(Frontiers in Cell and Developmental Biology, 2016)", "key": {"E. coli O157:H7": {"test_system": "E. coli O157:H7", "settings": "indicator strain E. coli O157:H7; ref Bikker et al., [2006]; cited from earlier work", "source_text": "(§1) Table 1 List of selected peptides with anti-Gram-negative bacteria activity. | column: MIC(μM)"}, "E. coli UB1005": {"test_system": "E. coli UB1005", "settings": "indicator strain E. coli UB1005; ref Hilpert et al., [2005]; cited from earlier work", "source_text": "as §1"}, "E. coli CECT101": {"test_system": "E. coli CECT101", "format": "cell-based, Escherichia coli", "settings": "growth curves, 18 h; experiment repeated three times", "protocol": "(§2) L. lactis strains were cultured in M17 broth supplemented with 0.5% (w/v) glucose (GM17) for genetic manipulation or in minimal expression medium (MEM) for protein expression at 30°C (Rink et al., [2005]). E. coli CECT101 was grown in Luria-Bertani broth aerated by shaking (200 rpm) at 37°C.\n(§3) The indicator strains were first cultured until OD (600 nm) reached 0.5. When testing the MIC value, the culture was diluted 1000 times with the appropriate medium. All the tests were performed with a temperature controlled plate reader (Tecan infinite F200, Tecan Group AG) in a 96-well plate (Greiner Bio-one). The peptides were first diluted in gradient with medium and then mixed with diluted indicator strains. The final concentration of the peptides ranged from 0.00625 to 0.8 μM against L. lactis MG1363 and from 0.25 to 32 μM against E. coli CECT101 in 100 μl volume. The plate was incubated at 30°C or 37°C for 18 h depending on the indicator strain being L. lactis or E. coli, respectively. OD (600 nm) was checked every 30 min. For E. coli, 2 min of shaking was performed before every check. When testing the activity of nisin against E. coli in the presence of EDTA, an EDTA solution was prepared and added to a final concentration of 50, 110, or 250 μM. The minimal concentration of peptide causing no observed growth of indicator strains was considered as the MIC value."}, "L. lactis MG1363": {"test_system": "L. lactis MG1363", "format": "cell-based, Lactococcus lactis", "settings": "from MIC values", "protocol": "as §2, §3"}, "E. coli CIP": {"test_system": "E. coli CIP", "assay": "Growth curve inhibition of E. coli CIP", "format": "cell-based, Escherichia coli", "settings": "growth curves of 8μM nisin and 8μM GNT16; Luria-Bertani broth, 37°C"}, "[1]": {"test_system": "Enterobacter aerogenes CECT684", "assay": "Growth curve inhibition of Enterobacter aerogenes CECT684", "format": "cell-based", "settings": "growth curves of 8μM nisin and 8μM GNT16; GM17, 37°C"}, "E. coli ATCC 700928": {"test_system": "E. coli ATCC 700928", "settings": "indicator strain E. coli ATCC 700928; ref Sainath Rao et al., [2013]; cited from earlier work", "source_text": "as §1"}}, "note": "Marks after values point to notes of the source that are not given here."}
{"compound": "GKPRPYSPRPTSHPRPIRV [Drosocin]", "values": [{"measurement": "MIC", "setting": "E. coli O157:H7", "value": "25^c μM"}]}
{"compound": "RIWVIWRR-NH2 [Bac8c]", "values": [{"measurement": "MIC", "setting": "E. coli UB1005", "value": "1.7^e μM"}]}
{"compound": "C=C1NC(=O)[C@H]([C@@H](C)CC)NC(=O)[C@H](NC(=O)/C(=C/C)NC(=O)[C@@H](N)[C@@H](C)CC)CSC[C@@H](C(=O)N[C@H]2C(=O)N3CCC[C@H]3C(=O)NCC(=O)N[C@H](C(=O)N[C@@H](CCCCN)C(=O)N[C@H]3C(=O)NCC(=O)N[C@@H](C)C(=O)N[C@@H](CC(C)C)C(=O)N[C@@H](CCSC)C(=O)NCC(=O)N[C@H](C(=O)N[C@@H](CC(N)=O)C(=O)N[C@@H](CCSC)C(=O)N[C@@H](CCCCN)C(=O)N[C@H]4C(=O)N[C@@H](C)C(=O)N[C@H]5C(=O)N[C@@H](CS[C@H]4C)C(=O)N[C@@H](Cc4c[nH]cn4)C(=O)N[C@H](C(=O)N[C@@H](CO)C(=O)N[C@H](C(=O)N[C@@H](Cc4c[nH]cn4)C(=O)N[C@H](C(=O)NC(=C)C(=O)N[C@@H](CCCCN)C(=O)N4CCC[C@H]4C(=O)N[C@@H](CCCNC(=N)N)C(=O)N4CCC[C@H]4C(=O)N4CCC[C@H]4C(=O)N[C@@H](Cc4c[nH]cn4)C(=O)N4CCC[C@H]4C(=O)N[C@@H](CCCNC(=N)N)C(=O)N[C@@H](CC(C)C)C(=O)O)C(C)C)[C@@H](C)CC)CS[C@H]5C)CS[C@H]3C)CS[C@H]2C)NC(=O)[C@H](CC(C)C)NC1=O", "note": "[GNT16]", "values": [{"measurement": "Concentration that fully inhibits growth of E. coli CECT101 within 18 h (Figure 3)", "setting": "E. coli CECT101", "value": 8, "unit": "µM"}, {"measurement": "Decrease of activity against L. lactis MG1363 relative to nisin", "setting": "L. lactis MG1363", "value": 32, "unit": "times"}, {"measurement": "Inhibitory activity against E. coli CIP compared with nisin", "setting": "E. coli CIP", "value": "equal or slightly better inhibitory activity than nisin"}, {"measurement": "Inhibitory activity against Enterobacter aerogenes CECT684 compared with nisin", "setting": "[1]", "value": "equal or slightly better inhibitory activity than nisin"}]}
{"compound": "RLLFRKIRRLKR [EC5]", "values": [{"measurement": "MIC", "setting": "E. coli ATCC 700928", "value": "4.8^d μM"}]}
